The text below walks through data of US20240245649A1, “Method and Composition for Mimicking Caloric Restriction by Administration of Ergothioneine” (NANJING NUTRABUILDING BIO-TECH CO., LTD., priority 2021, published 2024).

For series [1], the system named is high-fat diet (HFD) mice. As to the kind of experiment: Blood LDL and HDL in high-fat diet mice supplemented with Ergothioneine. It counts as in vivo. The procedure:
(§1) Mice group were named after the diet they consumed. Group A mice was fed ad libitum (control), and group B mice was on high-fat diet (HFD), Group C was fed restricted amount of the HFD diet to achieve caloric restriction (HFD+CR), and Group D was fed high-fat diet and supplemented with Ergothioneine (HFD+EGT), the concentration of Ergothioneine is 3.25 mg/kg. All groups of mice were housed individually, and fed for months of interventions and had free access to water. Health status was monitored during the intervention. At the end of each intervention, body composition, insulin sensitivity, blood glucose level, different blood parameters and lifespan of the mice were studied. After treatment, blood is taken to measure high-density lipoprotein (HDL), low-density lipoprotein (LDL) and HOmeostasis Model Assessment-Insulin Resistance (HOMA-IR). The HOMA-IR index was calculated using the following formula: HOMA-IR=[fasting glucose levels (mmol/L)]×[fasting serum insulin (mU/L)]/22.5. At the end of the experiment, AKT and phospho-AKT (Ser473) protein levels in skeletal muscle after 2 IU/kg insulin stimulation for 15 min were determined by immunoblotting (n=3-6). The concentrations of inflammatory cytokines including tumor necrosis factor-α (TNF-α) and interleukin (IL)-6, and oxidative stress markers including malonaldehyde (MDA) and superoxide dismutase (SOD) were detected by ELISA kits.

Series [2] has as its system high-fat diet (HFD) mice. As to the kind of experiment: HOMA-IR (fasting glucose x fasting serum insulin /22.5) in high-fat diet mice. Format: in vivo. The procedure: as §1
The subject of series [3] is AKT and phospho-AKT (Ser473). As to the kind of experiment: AKT and phospho-AKT (Ser473) protein levels in skeletal muscle after insulin stimulation, immunoblotting. Format: in vivo, mice. The procedure:
as §1
Background: A western blot detects proteins with antibodies after separation by electrophoresis.

For series [4], the system named is tumor necrosis factor-α (TNF-α) and interleukin (IL)-6. Nature of the series: Inflammatory cytokines TNF-α and IL-6 by ELISA kits in high-fat diet mice. Format: in vivo. As to the method: as §1
On the technique in general: In an ELISA, binding on a coated surface is turned into a signal by an enzyme label.

Series [5] has as its system malonaldehyde (MDA) and superoxide dismutase (SOD). As to the kind of experiment: Oxidative stress markers MDA and SOD by ELISA kits in high-fat diet mice. Format: in vivo. The procedure: as §1
The conditions of series [6]: animals and humans, even at high doses; cited from earlier work.

As to `C[N+](C)(C)[C@@H](Cc1c[nH]c(=S)[nH]1)C(=O)[O-]` [Ergothioneine], the “level of LDL” value with high-fat diet (HFD) mice [1] (HFD+EGT (Group D), Ergothioneine 3.25 mg/kg, vs HFD group, FIG. 1) is on record as “significantly decreased”. Moreover, in the series with high-fat diet (HFD) mice [1] (HFD+EGT (Group D), Ergothioneine 3.25 mg/kg, vs HFD group, FIG. 2), the “level of HDL” value is given as “significantly increased”. Besides, the “LDL level decreased by Ergothioneine to” value in the series with high-fat diet (HFD) mice [1] (broadest of the nested bounds printed (24, 22, 20, 18, 15)) is given as not above 24 mg/dL. Also, in the series on high-fat diet (HFD) mice [1] (broadest of the nested bounds printed (40, 42, 44, 46, 48, 50)), the “HDL level increased by Ergothioneine to” value is recorded as not below 40 mg/dL. The HOMA-IR entry in the series on high-fat diet (HFD) mice [2] (HFD+EGT group vs HFD group, FIG. 3) is recorded as “lower HOMA-IR than HFD group”. In the series on high-fat diet (HFD) mice [2] (broadest of the nested bounds printed (28, 26, 24, 22, 20, 15)), the “HOMA-IR decreased by Ergothioneine to” value is not above 28. For the same compound, the “p-AKT/AKT increased by Ergothioneine to” value in series [3] (broadest of the nested bounds printed (0.25, 0.35, 0.40, 0.45, 0.53, 0.60)) was not below 0.25. The “insulin-stimulated AKT phosphorylation (p-AKT)/AKT relative protein expression” value in series [3] (skeletal muscle, 2 IU/kg insulin for 15 min, HFD+EGT vs HFD group, FIG. 4) was “higher than HFD group”. Moreover, the “content of TNF-α” value in series [4] (HFD+EGT group compared with HFD group, FIG. 5) is given as “remarkably decreased”. Further, the “content of IL-6” value in series [4] (HFD+EGT group compared with HFD group, FIG. 6) was “remarkably decreased”. The “level of IL-6 decreased by Ergothioneine to” value in series [4] (broadest of the nested bounds printed (38, 35, 30, 28, 26, 22)) was not above 38 pg/mL. In addition, in series [4] (broadest of the nested bounds printed (40, 38, 35, 32, 30, 28, 26)), the “level of TNF-α decreased by Ergothioneine to” value is given as not above 40 pg/mL. Further, the MDA expression result in series [5] (EGT compared with HFD group, FIG. 7) was “reduction of MDA expression”. The SOD expression result in series [5] (EGT compared with HFD group, FIG. 8) is “elevation of SOD expression”. In series [5] (broadest of the nested bounds printed (15, 13, 12, 11, 10, 8)), the “level of MDA decreased by Ergothioneine to” value was not above 15 nmol/mL. Further, the “level of SOD increased by Ergothioneine to” value in series [5] (broadest of the nested bounds printed (45, 48, 50, 51, 52, 55)) was not below 45 U/mL. Moreover, in series [6], the “toxicity or adverse effects associated with administration” value is “no toxicity or adverse effects”.
